Paper PMC8292346, “Dysfunction of the key ferroptosis-surveilling systems hypersensitizes mice to tubular necrosis during acute kidney injury” (Nature Communications, 2021)
Several values for one entry are separate records, joined by “and”; a condition that tells them apart may be missing. Identical values can stand only once. Like-named read-outs stand apart in the source and are kept apart here.

Key:
[1] = Pharmacokinetic analysis of Nec-1f in mice (tissue PK); type: in vivo, C57BL/6 mice; conditions: individual mice; for concentration at 1440 min / concentration at 0 min / concentration at 5 min / concentration at 15 min / concentration at 120 min / concentration at 240 min / concentration at 360 min / concentration at 480 min / concentration at 60 min: male, C57BL/6, mouse, intraperitoneal; for concentration at 5 min: sample collection 5 min; for concentration at 15 min: sample collection 15 min; for concentration at 120 min: sample collection 120 min; for concentration at 60 min: sample collection 60 min
[2] = target: μ (MOP) (h) (Homo sapiens, UniProt P35372); experiment: Off-target radioligand binding screen; conditions: read-out: μ (MOP) (h) (#): inhibition of radioligand binding
Chain of μ (MOP) (h) (P35372 whole entry): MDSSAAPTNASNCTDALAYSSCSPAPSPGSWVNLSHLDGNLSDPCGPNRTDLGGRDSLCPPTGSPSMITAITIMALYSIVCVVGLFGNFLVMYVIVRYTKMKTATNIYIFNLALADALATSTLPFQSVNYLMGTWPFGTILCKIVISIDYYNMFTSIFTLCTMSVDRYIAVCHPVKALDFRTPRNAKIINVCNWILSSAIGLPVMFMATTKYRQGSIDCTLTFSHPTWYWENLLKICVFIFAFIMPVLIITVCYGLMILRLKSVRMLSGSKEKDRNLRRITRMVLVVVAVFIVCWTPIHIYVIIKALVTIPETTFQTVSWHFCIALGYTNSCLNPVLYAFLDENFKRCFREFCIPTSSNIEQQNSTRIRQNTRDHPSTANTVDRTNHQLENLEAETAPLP

[3] = system: C57BL/6N mice; experiment: Acute oxalate nephropathy (CaOx-induced AKI); type: in vivo, mouse; conditions: sodium oxalate, 1.65 mg/kg Nec-1f, individual animals
[4] = target: CB2(h) (Homo sapiens, UniProt P34972); experiment: Off-target radioligand binding screen; conditions: read-out: CB2(h) (#): inhibition of radioligand binding
Chain of CB2(h) (P34972 whole entry): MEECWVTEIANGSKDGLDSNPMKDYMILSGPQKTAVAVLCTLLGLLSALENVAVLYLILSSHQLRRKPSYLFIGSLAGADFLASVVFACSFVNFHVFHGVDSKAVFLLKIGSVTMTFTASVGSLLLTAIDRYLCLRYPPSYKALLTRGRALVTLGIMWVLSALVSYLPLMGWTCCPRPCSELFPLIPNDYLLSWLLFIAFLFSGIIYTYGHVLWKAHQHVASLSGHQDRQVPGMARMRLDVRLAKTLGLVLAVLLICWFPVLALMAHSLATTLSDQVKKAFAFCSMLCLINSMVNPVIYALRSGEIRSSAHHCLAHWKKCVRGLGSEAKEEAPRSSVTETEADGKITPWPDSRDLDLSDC

[5] = target: 5-HT3(h) (Homo sapiens, UniProt P46098); experiment: Off-target radioligand binding screen; conditions: read-out: 5-HT3(h) ($): inhibition of radioligand binding
Chain of 5-HT3(h) (P46098 24-478): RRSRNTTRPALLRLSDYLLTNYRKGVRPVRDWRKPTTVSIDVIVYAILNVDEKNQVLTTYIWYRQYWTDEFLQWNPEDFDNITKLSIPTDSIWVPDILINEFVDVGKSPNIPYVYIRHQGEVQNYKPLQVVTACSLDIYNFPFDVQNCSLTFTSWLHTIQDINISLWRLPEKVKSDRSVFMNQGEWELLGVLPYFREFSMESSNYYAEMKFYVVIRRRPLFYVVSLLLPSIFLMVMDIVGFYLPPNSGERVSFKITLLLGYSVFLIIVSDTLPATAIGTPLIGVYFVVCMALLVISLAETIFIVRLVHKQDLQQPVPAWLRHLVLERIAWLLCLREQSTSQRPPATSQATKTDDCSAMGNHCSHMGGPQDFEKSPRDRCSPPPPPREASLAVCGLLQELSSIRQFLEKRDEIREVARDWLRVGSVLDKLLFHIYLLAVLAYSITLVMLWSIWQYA

[6] = target: indoleamine 2,3-dioxygenase (IDO) (Homo sapiens, UniProt P14902); experiment: IDO assay (formation of N-formyl-kynurenine from L-tryptophan); conditions: read-out: IDO (h): inhibition
Chain of indoleamine 2,3-dioxygenase (IDO) (P14902 whole entry): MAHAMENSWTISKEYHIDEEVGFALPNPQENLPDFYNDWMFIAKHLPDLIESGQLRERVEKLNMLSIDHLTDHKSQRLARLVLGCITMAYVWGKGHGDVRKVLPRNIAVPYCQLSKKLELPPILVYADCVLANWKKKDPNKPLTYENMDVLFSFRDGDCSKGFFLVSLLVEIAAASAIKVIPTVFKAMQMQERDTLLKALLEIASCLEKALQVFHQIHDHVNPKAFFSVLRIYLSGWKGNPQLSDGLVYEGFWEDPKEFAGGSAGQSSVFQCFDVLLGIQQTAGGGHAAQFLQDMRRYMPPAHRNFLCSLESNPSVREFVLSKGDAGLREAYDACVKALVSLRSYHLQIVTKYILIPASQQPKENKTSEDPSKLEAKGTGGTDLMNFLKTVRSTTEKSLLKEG

[7] = target: α2A(h) (Homo sapiens, UniProt P08913); experiment: Off-target radioligand binding screen; conditions: read-out: α2A(h) ($): inhibition of radioligand binding
Chain of α2A(h) (P08913 whole entry): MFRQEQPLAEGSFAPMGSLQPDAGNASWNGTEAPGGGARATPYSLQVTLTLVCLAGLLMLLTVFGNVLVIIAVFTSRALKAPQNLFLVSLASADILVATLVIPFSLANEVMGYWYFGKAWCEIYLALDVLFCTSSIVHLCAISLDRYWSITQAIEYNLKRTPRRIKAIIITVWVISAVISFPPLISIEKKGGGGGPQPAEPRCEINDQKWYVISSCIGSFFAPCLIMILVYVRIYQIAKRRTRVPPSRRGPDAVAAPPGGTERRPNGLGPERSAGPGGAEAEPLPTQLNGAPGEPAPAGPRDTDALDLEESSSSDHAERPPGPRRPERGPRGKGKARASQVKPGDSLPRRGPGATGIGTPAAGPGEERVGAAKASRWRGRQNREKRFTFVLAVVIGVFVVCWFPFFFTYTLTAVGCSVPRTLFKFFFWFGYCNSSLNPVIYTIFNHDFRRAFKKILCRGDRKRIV

[8] = target: M3(h) (Homo sapiens, UniProt P20309); experiment: Off-target radioligand binding screen; conditions: read-out: M3(h) ($): inhibition of radioligand binding
Chain of M3(h) (P20309 whole entry): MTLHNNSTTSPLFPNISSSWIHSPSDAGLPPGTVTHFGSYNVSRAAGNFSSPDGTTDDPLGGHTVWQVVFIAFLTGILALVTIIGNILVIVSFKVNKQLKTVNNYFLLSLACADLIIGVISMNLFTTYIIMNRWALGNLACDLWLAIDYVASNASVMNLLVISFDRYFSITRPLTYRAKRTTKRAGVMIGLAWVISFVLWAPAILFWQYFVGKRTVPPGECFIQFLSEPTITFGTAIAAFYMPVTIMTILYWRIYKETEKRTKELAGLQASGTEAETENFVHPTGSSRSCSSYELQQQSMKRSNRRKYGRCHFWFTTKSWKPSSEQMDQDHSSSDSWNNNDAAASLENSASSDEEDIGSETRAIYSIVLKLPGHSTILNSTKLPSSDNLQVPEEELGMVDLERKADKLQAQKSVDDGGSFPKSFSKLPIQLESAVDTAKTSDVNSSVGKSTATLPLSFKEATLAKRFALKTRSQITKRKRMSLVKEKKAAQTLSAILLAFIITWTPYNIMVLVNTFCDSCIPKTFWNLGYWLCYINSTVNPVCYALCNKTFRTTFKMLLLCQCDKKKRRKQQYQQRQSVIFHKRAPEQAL

[9] = target: A2A(h) (Homo sapiens, UniProt P29274); experiment: Off-target radioligand binding screen; conditions: read-out: A2A(h) (#): inhibition of radioligand binding
Chain of A2A(h) (P29274 whole entry): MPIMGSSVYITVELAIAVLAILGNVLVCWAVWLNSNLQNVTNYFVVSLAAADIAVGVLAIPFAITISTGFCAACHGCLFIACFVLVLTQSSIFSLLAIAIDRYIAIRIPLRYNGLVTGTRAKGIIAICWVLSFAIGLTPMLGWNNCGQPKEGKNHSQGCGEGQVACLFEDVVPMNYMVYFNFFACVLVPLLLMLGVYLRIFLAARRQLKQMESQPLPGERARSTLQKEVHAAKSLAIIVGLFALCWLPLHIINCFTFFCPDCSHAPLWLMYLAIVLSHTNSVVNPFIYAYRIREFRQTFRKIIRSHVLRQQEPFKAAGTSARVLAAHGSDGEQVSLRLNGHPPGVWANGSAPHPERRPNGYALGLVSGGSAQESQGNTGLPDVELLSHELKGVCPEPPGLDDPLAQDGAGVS

[10] = target: N neuronal α4β2 (h) (Homo sapiens, UniProt P17787+P43681); experiment: Off-target radioligand binding screen; conditions: read-out: N neuronal α4β2 (h) (#): inhibition of radioligand binding
Chain of N neuronal α4β2 (h) (P43681 29-627 limits assumed): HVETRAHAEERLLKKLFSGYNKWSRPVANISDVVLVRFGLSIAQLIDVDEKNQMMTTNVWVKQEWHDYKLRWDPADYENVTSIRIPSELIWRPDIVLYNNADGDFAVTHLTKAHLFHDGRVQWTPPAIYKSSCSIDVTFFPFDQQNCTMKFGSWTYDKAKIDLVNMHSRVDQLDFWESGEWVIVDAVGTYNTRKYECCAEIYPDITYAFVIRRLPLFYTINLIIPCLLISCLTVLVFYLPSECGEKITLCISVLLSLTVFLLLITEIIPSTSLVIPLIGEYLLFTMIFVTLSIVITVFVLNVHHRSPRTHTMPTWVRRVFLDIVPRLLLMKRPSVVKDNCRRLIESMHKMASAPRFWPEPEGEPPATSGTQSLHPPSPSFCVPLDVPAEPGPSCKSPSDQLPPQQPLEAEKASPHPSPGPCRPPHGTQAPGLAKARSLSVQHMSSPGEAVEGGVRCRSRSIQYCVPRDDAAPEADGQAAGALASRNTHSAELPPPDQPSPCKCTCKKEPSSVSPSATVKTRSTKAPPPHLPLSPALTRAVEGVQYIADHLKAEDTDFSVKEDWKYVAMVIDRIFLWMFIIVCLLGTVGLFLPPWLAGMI
Chain of N neuronal α4β2 (h) (P17787 26-502): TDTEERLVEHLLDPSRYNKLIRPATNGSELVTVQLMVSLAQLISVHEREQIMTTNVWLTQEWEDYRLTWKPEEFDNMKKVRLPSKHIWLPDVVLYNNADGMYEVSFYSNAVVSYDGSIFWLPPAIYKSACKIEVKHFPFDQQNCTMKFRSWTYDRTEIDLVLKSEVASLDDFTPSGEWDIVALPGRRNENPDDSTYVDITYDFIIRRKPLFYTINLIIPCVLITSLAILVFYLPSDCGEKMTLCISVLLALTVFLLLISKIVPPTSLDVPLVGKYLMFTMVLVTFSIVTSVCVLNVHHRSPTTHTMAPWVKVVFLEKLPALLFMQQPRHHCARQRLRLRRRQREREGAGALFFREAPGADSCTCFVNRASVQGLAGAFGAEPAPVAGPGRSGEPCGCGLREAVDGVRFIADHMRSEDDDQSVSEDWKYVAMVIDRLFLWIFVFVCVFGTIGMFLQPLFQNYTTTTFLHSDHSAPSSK

[11] = target: H2(h) (Homo sapiens, UniProt P25021); experiment: Off-target radioligand binding screen; conditions: read-out: H2(h) ($): inhibition of radioligand binding
Chain of H2(h) (P25021 whole entry): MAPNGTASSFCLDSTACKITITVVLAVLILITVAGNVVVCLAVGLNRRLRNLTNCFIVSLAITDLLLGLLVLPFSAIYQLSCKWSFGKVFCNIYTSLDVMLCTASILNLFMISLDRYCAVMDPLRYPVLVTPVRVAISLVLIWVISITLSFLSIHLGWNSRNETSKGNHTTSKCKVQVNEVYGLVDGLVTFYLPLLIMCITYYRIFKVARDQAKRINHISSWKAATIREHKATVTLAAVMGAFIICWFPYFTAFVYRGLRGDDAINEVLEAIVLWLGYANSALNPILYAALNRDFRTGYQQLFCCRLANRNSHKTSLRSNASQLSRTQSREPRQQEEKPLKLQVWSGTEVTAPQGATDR

[12] = target: norepinephrine transporter(h) (Homo sapiens, UniProt P23975); experiment: Off-target radioligand binding screen; conditions: read-out: norepinephrine transporter(h) ($): inhibition of radioligand binding
[13] = system: AR(h); experiment: Off-target radioligand binding screen; conditions: Nec-1f 10 µM
[14] = liver, liver, read-out: concentration in liver
[15] = lung, lung, read-out: concentration in lung
[16] = pancreas, pancreas, read-out: concentration in pancreas
[17] = plasma, 2 mg/ml, plasma, read-out: concentration in plasma
[18] = whole blood, 2 mg/ml, blood, read-out: concentration in blood

## CN1C(=O)C(Cc2c[nH]c3c(Cl)cccc23)NC1=S (stereo not shown) [Nec-1f]
[1]; liver, 2 mg/kg, liver, sample collection 1440 min, read-out: concentration in liver
  concentration at 1440 min: 0 ng/mL
[1]; liver, liver, sample collection 0 min, read-out: concentration in liver
  concentration at 0 min: 0 ng/mL
[1]; [14]
  concentration at 5 min: 202 ng/mL
  concentration at 15 min: 334 ng/mL
  concentration at 120 min: 0 ng/mL
[1]; lung, 2 mg/kg, lung, sample collection 240 min, read-out: concentration in lung
  concentration at 240 min: 0 ng/mL
[1]; lung, 2 mg/kg, lung, sample collection 360 min, read-out: concentration in lung
  concentration at 360 min: 0 ng/mL
[1]; lung, 2 mg/kg, lung, sample collection 480 min, read-out: concentration in lung
  concentration at 480 min: 0 ng/mL
[1]; lung, lung, sample collection 0 min, read-out: concentration in lung
  concentration at 0 min: 0 ng/mL
[1]; [15]
  concentration at 5 min: 573 ng/mL
  concentration at 60 min: 321 ng/mL
  concentration at 120 min: 50 ng/mL
[1]; lung, lung, sample collection 1440 min, read-out: concentration in lung
  concentration at 1440 min: 0 ng/mL
[1]; pancreas, pancreas, sample collection 0 min, read-out: concentration in pancreas
  concentration at 0 min: 0 ng/mL
[1]; [16]
  concentration at 5 min: 8950 ng/mL
  concentration at 15 min: 35200 ng/mL
  concentration at 120 min: 490 ng/mL
[1]; pancreas, pancreas, sample collection 1440 min, read-out: concentration in pancreas
  concentration at 1440 min: 0 ng/mL
[1]; plasma, 2 mg/kg, plasma, sample collection 240 min, read-out: concentration in plasma
  concentration at 240 min: 0 ng/mL
[1]; plasma, 2 mg/kg, plasma, sample collection 360 min, read-out: concentration in plasma
  concentration at 360 min: 0 ng/mL
[1]; plasma, 2 mg/kg, plasma, sample collection 480 min, read-out: concentration in plasma
  concentration at 480 min: 0 ng/mL
[1]; plasma, 2 mg/kg, plasma, sample collection 1440 min, read-out: concentration in plasma
  concentration at 1440 min: 0 ng/mL
[1]; plasma, 2 mg/ml, plasma, sample collection 0 min, read-out: concentration in plasma
  concentration at 0 min: 0 ng/mL
[1]; [17]
  concentration at 5 min: 0 ng/mL
  concentration at 60 min: 19 ng/mL
  concentration at 120 min: 0 ng/mL
[1]; whole blood, 2 mg/kg, blood, sample collection 240 min, read-out: concentration in blood
  concentration at 240 min: 0 ng/mL
[1]; whole blood, 2 mg/kg, blood, sample collection 360 min, read-out: concentration in blood
  concentration at 360 min: 0 ng/mL
[1]; whole blood, 2 mg/kg, blood, sample collection 480 min, read-out: concentration in blood
  concentration at 480 min: 0 ng/mL
[1]; whole blood, 2 mg/ml, blood, sample collection 0 min, read-out: concentration in blood
  concentration at 0 min: 0 ng/mL
[1]; [18]
  concentration at 5 min: 0 ng/mL
  concentration at 60 min: 0 ng/mL
  concentration at 120 min: 0 ng/mL
[1]; whole blood, 2 mg/ml, blood, sample collection 1440 min, read-out: concentration in blood
  concentration at 1440 min: 0 ng/mL
[1]; pancreas, sample collection 240 min
  concentration in pancreas: 476 ng/mL and 7372 ng/mL and 2018 ng/mL
[1]; pancreas, sample collection 360 min
  concentration in pancreas: 0 ng/mL and 1720 ng/mL and 911 ng/mL
[1]; pancreas, sample collection 480 min
  concentration in pancreas: 0 ng/mL and 176 ng/mL and 625 ng/mL
[1]; pancreas, sample collection 1440 min
  concentration in pancreas: 0 ng/mL
[1]; plasma, sample collection 0 min
  concentration in plasma: 0 ng/mL
[1]; plasma, sample collection 240 min
  concentration in plasma: 0 ng/mL
[1]; plasma, sample collection 360 min
  concentration in plasma: 0 ng/mL
[1]; plasma, sample collection 480 min
  concentration in plasma: 0 ng/mL
[1]; plasma, sample collection 1440 min
  concentration in plasma: 0 ng/mL
[2]
  inhibition at 10 µM: 15.8%
[3]
  CaOx deposition score [1-10] (Pizzolato staining): 3 and 6 and 4
[4]
  inhibition at 10 µM: -12.8%
[5]
  inhibition at 10 µM: 10.4%
[6]
  inhibition at 10 µM: 2%
[7]
  inhibition at 10 µM: -2%
[8]
  inhibition at 10 µM: -4.9%
[9]
  inhibition at 10 µM: -0.3%
[10]
  inhibition at 10 µM: 3.6%
[11]
  inhibition at 10 µM: -27.4%
[12]
  inhibition at 10 µM: 7.3%
[13]
  AR(h) (#): inhibition of radioligand binding: 12.2%
